Among the data in PubChem BioAssay (NCI) are GI50 and TGI values, retold here.

Where “and” joins values, the source holds several entries; their conditions need not be identical. Equal entries are not always repeated.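 Values below derive from 48-hour exposures of cells grown in 96-well plates, with endpoints linearly interpolated between the two concentrations bracketing the appropriate inhibition level. At the GI50, growth is halved. TGI: concentration producing complete growth inhibition.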

Some test systems named below: A549 NSCLC; BT-549 breast; HCT-116 colon; NCI-H226 lung; OVCAR-8 ovarian; SNB-75 CNS; SW-620 colon; T-47D breast; U251 CNS; UACC-62 melanoma.
Holding throughout (assay): NCI tumour cell line growth inhibition, 48 h

Take `C/C=C/[C@@H]1OC(=O)C2=C[C@@H](O)[C@@H](/C=C/C)O[C@H]21`: the GI50 was 15.8 µM with A549 NSCLC; 2.31 µM in the assay on BT-549 breast; 1.3 µM with HCT-116 colon; 6.17 µM in the assay with NCI-H226 lung; 13.4 µM in the assay with OVCAR-8 ovarian; 14.6 µM in the assay with SNB-75 CNS. Moreover, the GI50 in the assay with SW-620 colon is 0.989 µM; with T-47D breast, 3.3 µM; with U251 CNS it was 14.6 µM; with UACC-62 melanoma it was 13.9 µM. Further, the TGI with A549 NSCLC came out at 34 µM; in the assay on BT-549 breast, 8.67 µM; with HCT-116 colon, 3.94 µM; in the assay with NCI-H226 lung it was 13.9 µM; in the assay with OVCAR-8 ovarian it was 34.1 µM; in the assay on SNB-75 CNS, 32.4 µM. In addition, the TGI in the assay with SW-620 colon came to 3.13 µM; in the assay with T-47D breast it was 13 µM; with U251 CNS, 35.6 µM; with UACC-62 melanoma, 28.9 µM.

As for `C=C1CCC2C3(C)COC(c4ccccc4Br)OC3CCC2(C)C1C/C=C1/C(=O)OCC1OC(C)=O` (stereo not given), the GI50 in the assay on A549 NSCLC was 2.06 µM; with BT-549 breast it was 1.7 µM; in the assay with HCT-116 colon, 0.289 µM; in the assay with NCI-H226 lung, 1.64 µM; in the assay on OVCAR-8 ovarian it was 0.584 µM; with SNB-75 CNS it was 1.17 µM. The GI50 in the assay on SW-620 colon is 0.402 µM; in the assay on T-47D breast, 1.08 µM; with U251 CNS, 1.22 µM; in the assay with UACC-62 melanoma, 1.42 µM. Further, the TGI in the assay with A549 NSCLC is 5.26 µM; in the assay with BT-549 breast, 3.71 µM; with HCT-116 colon, 0.751 µM; in the assay on NCI-H226 lung it was 3.42 µM; in the assay on OVCAR-8 ovarian, 1.8 µM; in the assay on SNB-75 CNS, 2.46 µM. Further, the TGI amounted to 1.3 µM in the assay on SW-620 colon, 2.77 µM with T-47D breast, 2.46 µM in the assay with U251 CNS and 2.86 µM in the assay with UACC-62 melanoma.

Turning to `CCCc1cc(=O)n2c(C(=O)Nc3ccccc3OC)c(C(=O)Nc3ccc(F)cc3)sc2n1`, the GI50 was 5.27 µM with A549 NSCLC; 31 µM with BT-549 breast; 4.61 µM in the assay with HCT-116 colon; 0.802 µM in the assay on NCI-H226 lung; 5.67 µM with OVCAR-8 ovarian; 8.72 µM in the assay with SNB-75 CNS. For the same compound, the GI50 with SW-620 colon was 31 µM; in the assay with T-47D breast, 71.8 µM; with U251 CNS it was 5.88 µM; in the assay with UACC-62 melanoma, 4.24 µM. For the same compound, the TGI in the assay on A549 NSCLC was 20.2 µM; in the assay with BT-549 breast, 71.1 µM; with HCT-116 colon, 22.2 µM; in the assay with NCI-H226 lung it was 6.96 µM; in the assay with OVCAR-8 ovarian, 20.7 µM; with SNB-75 CNS it was 35 µM. The TGI in the assay on SW-620 colon is greater than 160 µM; with T-47D breast, greater than 160 µM; with U251 CNS it was 21.5 µM; with UACC-62 melanoma it was 22.7 µM.

Turning to `CC1(C)CC[C@]2(C(=O)N3CCOCC3)CC[C@]3(C)C(=CC[C@@H]4[C@@]5(C)C/C(=C/c6ccncc6)C(=O)C(C)(C)[C@@H]5CC[C@]43C)[C@@H]2C1`, the GI50 is 1.22 µM with A549 NSCLC; 1.39 µM with BT-549 breast; 0.319 µM in the assay on HCT-116 colon; 2.09 µM in the assay on NCI-H226 lung; 3.52 µM in the assay with OVCAR-8 ovarian; 3.21 µM in the assay on SNB-75 CNS. In addition, the GI50 in the assay with SW-620 colon was 2.29 µM; with T-47D breast, 0.781 µM; in the assay on U251 CNS, 1.89 µM; in the assay on UACC-62 melanoma it was 1.36 µM. Besides, the TGI in the assay with A549 NSCLC was greater than 100 µM; with BT-549 breast it was 10 µM; in the assay on HCT-116 colon it was 2 µM; with NCI-H226 lung, 9.22 µM; in the assay with OVCAR-8 ovarian, greater than 100 µM; in the assay on SNB-75 CNS, greater than 100 µM. The TGI in the assay with SW-620 colon was greater than 100 µM; with T-47D breast it was greater than 100 µM; with U251 CNS it was 10.3 µM; in the assay with UACC-62 melanoma, 40.9 µM.

On to `CSC1(SC2=NCCN2)SC2(NCCN2)S1`, for which the TGI was 40.1 µM with A549 NSCLC; 54.9 µM with BT-549 breast; 31.7 µM with HCT-116 colon; 56.7 µM in the assay with NCI-H226 lung; 43 µM in the assay on OVCAR-8 ovarian; 32.2 µM in the assay with SNB-75 CNS. Moreover, the TGI in the assay with SW-620 colon was 51.6 µM; with T-47D breast it was 5.91 µM; with U251 CNS, 32.8 µM; with UACC-62 melanoma, 32.7 µM.

For the compound `OCC1OC(n2cnc3c(=S)nc[nH]c32)C(O)C1O` (stereo not given), the GI50 in the assay with A549 NSCLC is 42.5 µM; in the assay on BT-549 breast, 62.7 µM; with HCT-116 colon, 2.78 µM; in the assay with NCI-H226 lung, greater than 31.1 µM; in the assay on OVCAR-8 ovarian, 6.36 µM; in the assay on SNB-75 CNS, 34.1 µM. The GI50 is 7.29 µM in the assay on SW-620 colon, 2.95 µM with T-47D breast, 58.3 µM in the assay on U251 CNS and 3.56 µM in the assay on UACC-62 melanoma. Further, the TGI with A549 NSCLC, in the assay on BT-549 breast, with HCT-116 colon, with NCI-H226 lung, in the assay with OVCAR-8 ovarian and in the assay on SNB-75 CNS was greater than 2500 µM throughout. For the same compound, the TGI in the assay on SW-620 colon is greater than 2500 µM; in the assay on T-47D breast, greater than 2500 µM; with U251 CNS it was greater than 2500 µM; in the assay on UACC-62 melanoma, 1910 µM and > 100 µM.

Turning to `COc1cc(C2C3=C(COC3=O)Nc3cc4c(cc32)CCC4)cc2c1OCO2` (stereo not given), the GI50 in the assay on A549 NSCLC is 0.061 µM; with BT-549 breast, 0.311 µM; with HCT-116 colon it was 0.0428 µM; in the assay on NCI-H226 lung, 0.0391 µM; with OVCAR-8 ovarian it was 0.0399 µM; with SNB-75 CNS, 0.0259 µM. For the same compound, the GI50 was 0.0413 µM in the assay with SW-620 colon, 12 µM in the assay on T-47D breast, 0.0452 µM with U251 CNS and 0.051 µM in the assay on UACC-62 melanoma. Further, the TGI in the assay on A549 NSCLC was 12.7 µM; in the assay on BT-549 breast, 42.2 µM; in the assay with HCT-116 colon it was 1.31 µM; in the assay on NCI-H226 lung, 1.6 µM; in the assay on OVCAR-8 ovarian, 1.99 µM; in the assay with SNB-75 CNS, 18.8 µM. In addition, the TGI was determined as 13.2 µM with SW-620 colon, 59.8 µM with T-47D breast, 4.61 µM with U251 CNS and 17.7 µM in the assay with UACC-62 melanoma.

As for `N=C(N)c1ccc(COc2ccccc2OCc2ccc(C(=N)N)cc2)cc1`, the GI50 was 57.5 µM in the assay on A549 NSCLC; 34.8 µM in the assay on BT-549 breast; 35.2 µM in the assay on HCT-116 colon; 28.6 µM in the assay on NCI-H226 lung; 48.2 µM with OVCAR-8 ovarian; 73.8 µM in the assay with SNB-75 CNS. Besides, the GI50 with SW-620 colon is 43.5 µM; in the assay with T-47D breast, 58.4 µM; with U251 CNS it was 25.6 µM; in the assay with UACC-62 melanoma it was 34.2 µM. In addition, the TGI with A549 NSCLC was greater than 100 µM; with BT-549 breast, 76.7 µM; in the assay on HCT-116 colon, greater than 100 µM; with NCI-H226 lung it was 81 µM; in the assay with OVCAR-8 ovarian, greater than 100 µM; with SNB-75 CNS it was greater than 100 µM. Besides, the TGI is greater than 100 µM in the assay on SW-620 colon, greater than 100 µM in the assay with T-47D breast, 65.4 µM with U251 CNS and greater than 100 µM in the assay on UACC-62 melanoma.
